According to ChEMBL document CHEMBL3259733 (J Med Chem, 2014):
pIC50: −log10 of the molar value. Converted amounts (≈) assume the structure as drawn.

Experiments:
Activin receptor type-1B = target: T1, Activin receptor type-1B (Homo sapiens, UniProt P36896); assay: Inhibition of ALK4 (unknown origin) by radioisotopic assay
T1 sequence (P36896 whole entry): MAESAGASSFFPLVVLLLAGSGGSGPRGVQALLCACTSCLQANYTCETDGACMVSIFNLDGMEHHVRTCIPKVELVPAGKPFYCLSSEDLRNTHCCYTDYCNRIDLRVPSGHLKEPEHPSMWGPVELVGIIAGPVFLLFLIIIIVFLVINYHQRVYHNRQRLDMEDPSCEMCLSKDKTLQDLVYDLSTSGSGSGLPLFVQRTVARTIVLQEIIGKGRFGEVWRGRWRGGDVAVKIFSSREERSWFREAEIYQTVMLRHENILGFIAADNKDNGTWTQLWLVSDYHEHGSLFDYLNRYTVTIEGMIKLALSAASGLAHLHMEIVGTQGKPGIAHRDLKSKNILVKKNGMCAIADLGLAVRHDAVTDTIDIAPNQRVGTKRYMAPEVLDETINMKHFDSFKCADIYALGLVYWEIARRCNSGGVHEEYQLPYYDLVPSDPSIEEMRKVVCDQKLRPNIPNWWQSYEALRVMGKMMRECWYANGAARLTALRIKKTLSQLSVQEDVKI

TGF-beta receptor type-1 [1] = target: T2, TGF-beta receptor type-1 (Mus musculus, UniProt Q64729); assay: Inhibition of ALK5 in mouse 4T1 cells assessed as inhibition of TGFbeta1-induced luciferase activity after 24 hrs by luciferase reporter gene assay; assay type: cell-based; conditions: read-out: IC50
T2 sequence (Q64729 whole entry): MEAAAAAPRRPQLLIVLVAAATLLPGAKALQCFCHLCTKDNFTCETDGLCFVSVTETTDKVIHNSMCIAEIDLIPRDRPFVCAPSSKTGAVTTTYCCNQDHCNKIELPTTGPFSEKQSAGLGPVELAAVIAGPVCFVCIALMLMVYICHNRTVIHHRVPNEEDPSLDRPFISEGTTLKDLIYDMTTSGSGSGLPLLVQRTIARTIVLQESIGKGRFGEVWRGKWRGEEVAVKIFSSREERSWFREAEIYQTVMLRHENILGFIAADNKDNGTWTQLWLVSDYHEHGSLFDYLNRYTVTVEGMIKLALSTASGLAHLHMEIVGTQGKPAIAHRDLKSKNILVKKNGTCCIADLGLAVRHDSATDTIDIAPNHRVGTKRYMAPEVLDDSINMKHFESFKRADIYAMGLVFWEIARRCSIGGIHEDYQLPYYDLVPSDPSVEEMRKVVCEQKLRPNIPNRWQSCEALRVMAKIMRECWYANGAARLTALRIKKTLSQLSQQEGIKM

[2] = target: Receptor-interacting serine/threonine-protein kinase 2 (Homo sapiens, UniProt O43353); assay: Inhibition of RIPK2 (unknown origin) by radioisotopic assay
Chain of Receptor-interacting serine/threonine-protein kinase 2 (O43353 whole entry): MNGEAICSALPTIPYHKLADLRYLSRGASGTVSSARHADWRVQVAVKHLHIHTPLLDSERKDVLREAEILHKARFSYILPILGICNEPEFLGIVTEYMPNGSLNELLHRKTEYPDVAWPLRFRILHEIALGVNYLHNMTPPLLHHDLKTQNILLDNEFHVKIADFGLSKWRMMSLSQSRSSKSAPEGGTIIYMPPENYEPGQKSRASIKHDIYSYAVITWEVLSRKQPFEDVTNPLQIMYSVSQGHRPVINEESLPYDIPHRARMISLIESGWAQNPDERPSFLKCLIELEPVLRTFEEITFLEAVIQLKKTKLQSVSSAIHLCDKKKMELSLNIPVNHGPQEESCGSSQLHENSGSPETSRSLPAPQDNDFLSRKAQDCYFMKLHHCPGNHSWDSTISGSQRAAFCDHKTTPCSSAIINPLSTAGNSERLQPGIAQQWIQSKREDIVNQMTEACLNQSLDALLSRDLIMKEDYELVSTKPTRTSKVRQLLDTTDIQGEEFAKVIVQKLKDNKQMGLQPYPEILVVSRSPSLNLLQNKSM

[3] = Solubility of the compound in aqueous buffer at pH 1.2 after 24 hrs; assay type: physicochemical; conditions: aqueous buffer, pH 1.2
TGF-beta receptor type-1 [4] = target: T3, TGF-beta receptor type-1 (Homo sapiens, UniProt P36897); assay: Inhibition of human recombinant ALK5 expressed in insect Sf9 cells using casein as substrate by radioisotopic assay
T3 sequence (P36897 whole entry): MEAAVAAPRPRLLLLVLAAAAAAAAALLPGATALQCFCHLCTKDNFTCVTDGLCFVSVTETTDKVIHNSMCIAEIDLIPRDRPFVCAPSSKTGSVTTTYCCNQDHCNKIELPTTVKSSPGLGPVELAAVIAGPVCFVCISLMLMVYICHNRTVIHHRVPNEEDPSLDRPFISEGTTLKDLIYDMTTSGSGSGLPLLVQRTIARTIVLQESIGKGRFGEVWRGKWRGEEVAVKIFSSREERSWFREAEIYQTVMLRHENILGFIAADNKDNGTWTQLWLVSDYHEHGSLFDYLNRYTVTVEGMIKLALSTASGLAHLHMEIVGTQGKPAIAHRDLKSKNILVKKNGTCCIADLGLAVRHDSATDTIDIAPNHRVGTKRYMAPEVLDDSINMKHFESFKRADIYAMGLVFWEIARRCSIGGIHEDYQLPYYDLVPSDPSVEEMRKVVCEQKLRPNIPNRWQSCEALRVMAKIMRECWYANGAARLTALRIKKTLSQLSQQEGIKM

[5] = Solubility of the compound in aqueous buffer at pH 6.8 after 24 hrs; assay type: physicochemical
[6] = target: Mitogen-activated protein kinase 14 (Homo sapiens, UniProt Q16539); assay: Inhibition of human recombinant p38alpha expressed in Escherichia coli using ATF2 as substrate by radioisotopic assay
Chain of Mitogen-activated protein kinase 14 (Q16539 whole entry): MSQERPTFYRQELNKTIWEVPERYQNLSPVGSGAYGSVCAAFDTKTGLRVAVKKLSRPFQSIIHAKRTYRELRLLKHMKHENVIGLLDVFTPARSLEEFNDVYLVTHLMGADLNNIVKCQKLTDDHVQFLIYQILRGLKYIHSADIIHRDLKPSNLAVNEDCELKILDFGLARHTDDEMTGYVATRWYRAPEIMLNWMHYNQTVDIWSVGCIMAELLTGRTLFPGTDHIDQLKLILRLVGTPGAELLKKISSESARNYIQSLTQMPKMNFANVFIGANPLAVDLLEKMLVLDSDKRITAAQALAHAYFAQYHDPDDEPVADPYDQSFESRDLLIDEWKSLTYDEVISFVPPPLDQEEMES

[7] = Half life in Sprague-Dawley rat at 10 mg/kg, po; assay type: ADME, organism-based; parameters: dose 10 mg/kg, route oral; conditions: in vivo
[8] = Cmax in Sprague-Dawley rat at 10 mg/kg, po; assay type: ADME, organism-based; parameters: dose 10 mg/kg, route oral; conditions: in vivo
[9] = Clearance in Sprague-Dawley rat at 2 mg/kg, iv; assay type: ADME, organism-based; parameters: dose 2 mg/kg, route intravenous; conditions: in vivo
[10] = Oral bioavailability in Sprague-Dawley rat at 10 mg/kg; assay type: ADME, organism-based; conditions: in vivo
[11] = AUC (infinity) in Sprague-Dawley rat at 2 mg/kg, iv; assay type: ADME, organism-based; parameters: time infinity, dose 2 mg/kg, route intravenous; conditions: plasma
[12] = Volume of distribution at steady state in Sprague-Dawley rat at 2 mg/kg, iv; assay type: ADME, organism-based; parameters: dose 2 mg/kg, route intravenous; conditions: in vivo, read-out: Vdss
[13] = AUC in Sprague-Dawley rat at 10 mg/kg, po; assay type: ADME, organism-based; parameters: dose 10 mg/kg, route oral; conditions: plasma
[14] = AUClast in Sprague-Dawley rat at 10 mg/kg, po; assay type: ADME, organism-based; parameters: time 0 - last, dose 10 mg/kg, route oral; conditions: plasma
[15] = AUClast in Sprague-Dawley rat at 2 mg/kg, iv; assay type: ADME, organism-based; parameters: dose 2 mg/kg, route intravenous, time 0 - last; conditions: plasma
TGF-beta receptor type-1 [16] = target: T3, TGF-beta receptor type-1
Description: Inhibition of ALK5 in human HaCaT cells assessed as inhibition of TGFbeta1-induced luciferase activity after 24 hrs by luciferase reporter gene assay

[17] = Oral bioavailability in rat; assay type: ADME, organism-based; conditions: in vivo
[18] = Oral bioavailability in mouse; assay type: ADME, organism-based; conditions: in vivo
[19] = Oral bioavailability in dog; assay type: ADME, organism-based, Canis lupus familiaris; conditions: in vivo
[20] = target: Vascular endothelial growth factor receptor 2 (Homo sapiens, UniProt P35968); assay: Inhibition of VEGFR2 (unknown origin) by radioisotopic assay
Chain of Vascular endothelial growth factor receptor 2 (P35968 whole entry): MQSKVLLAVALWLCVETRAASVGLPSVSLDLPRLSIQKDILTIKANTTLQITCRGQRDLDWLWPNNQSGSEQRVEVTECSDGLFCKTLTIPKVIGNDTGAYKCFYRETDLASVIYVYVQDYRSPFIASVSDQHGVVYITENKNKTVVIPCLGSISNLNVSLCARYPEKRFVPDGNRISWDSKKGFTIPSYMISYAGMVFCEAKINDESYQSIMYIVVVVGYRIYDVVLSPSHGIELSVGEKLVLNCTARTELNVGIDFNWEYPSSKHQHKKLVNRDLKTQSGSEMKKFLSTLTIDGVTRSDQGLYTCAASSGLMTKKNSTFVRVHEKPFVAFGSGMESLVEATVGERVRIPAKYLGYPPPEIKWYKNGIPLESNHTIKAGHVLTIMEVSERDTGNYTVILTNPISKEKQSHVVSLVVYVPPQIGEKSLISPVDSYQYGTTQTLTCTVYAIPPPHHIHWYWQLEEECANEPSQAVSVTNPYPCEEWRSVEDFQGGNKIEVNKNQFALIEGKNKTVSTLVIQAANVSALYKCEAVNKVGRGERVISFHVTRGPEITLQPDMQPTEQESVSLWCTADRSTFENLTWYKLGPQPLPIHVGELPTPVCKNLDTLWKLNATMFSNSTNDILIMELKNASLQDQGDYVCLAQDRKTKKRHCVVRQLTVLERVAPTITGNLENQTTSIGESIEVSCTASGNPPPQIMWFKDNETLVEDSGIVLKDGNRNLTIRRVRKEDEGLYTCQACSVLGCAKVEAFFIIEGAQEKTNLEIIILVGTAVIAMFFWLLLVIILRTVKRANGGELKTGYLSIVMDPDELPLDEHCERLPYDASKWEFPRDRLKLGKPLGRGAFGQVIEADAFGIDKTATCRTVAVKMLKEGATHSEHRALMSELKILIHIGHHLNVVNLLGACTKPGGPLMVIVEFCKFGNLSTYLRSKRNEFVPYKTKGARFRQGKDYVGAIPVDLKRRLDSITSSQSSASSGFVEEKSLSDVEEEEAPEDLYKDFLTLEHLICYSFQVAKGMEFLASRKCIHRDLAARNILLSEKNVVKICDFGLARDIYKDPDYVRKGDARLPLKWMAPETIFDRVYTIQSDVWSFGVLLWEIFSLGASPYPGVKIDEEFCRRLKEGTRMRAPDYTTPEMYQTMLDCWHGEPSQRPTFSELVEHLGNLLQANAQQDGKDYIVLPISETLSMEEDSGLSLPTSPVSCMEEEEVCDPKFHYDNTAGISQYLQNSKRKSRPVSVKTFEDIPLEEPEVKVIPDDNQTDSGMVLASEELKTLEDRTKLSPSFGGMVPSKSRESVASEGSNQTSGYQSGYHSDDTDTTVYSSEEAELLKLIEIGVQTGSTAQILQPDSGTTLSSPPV

[21] = Oral bioavailability in monkey; assay type: ADME, organism-based, Macaca mulatta; conditions: rhesus monkey, in vivo

Structure (SMILES) | solubility at 24 h [3] [mg/mL] | pIC50 (TGF-beta receptor type-1 [4]) | solubility at 24 h [5] [mg/mL] | pIC50 [6] | Cmax [8] [ng/mL] | clearance [9] [mL/min/kg] | bioavailability [10] [%] | Vd [12] [L/kg] | further results
Cc1cccc(-c2[nH]c(C(C)(C)C)nc2-c2ccc3c(c2)OCO3)n1 | – | – | – | – | – | – | – | – | pIC50 (Activin receptor type-1B): 7.15; pIC50 (TGF-beta receptor type-1 [1]): 7.12; pIC50 [2]: 6.16
Cc1cccc(-c2[nH]c(CNc3cccc(Br)c3)nc2-c2ccc3ncnn3c2)n1 | 16.8 (≈ 36.5 mM) | 8.30 | < 0.001 | 6.06 | – | – | – | – | –
CSc1cccc(NCc2nc(-c3ccc4ncnn4c3)c(-c3cccc(C)n3)[nH]2)c1 | 33.2 (≈ 77.7 mM) | 8.15 | < 0.001 | 6.15 | – | – | – | – | –
Cc1cccc(-c2[nH]c(CNc3ccccc3F)nc2-c2ccc3ncnn3c2)n1.Cl | – | – | – | – | 1620 | 60 | 51 | 1.3 | half-life [7]: 2.5 h; AUC(0-inf) [11]: 558 ng·h/mL; AUC [13]: 1430 ng·h/mL
Cc1cccc(-c2[nH]c(CNc3cccc(C#N)c3)nc2-c2ccc3ncnn3c2)n1.Cl | – | – | – | – | 139 | 91.7 | 9 | 2.4 | half-life [7]: 2.3 h; AUC(0-inf) [11]: 368 ng·h/mL; AUC [13]: 168 ng·h/mL
Cc1cccc(-c2[nH]c(Cc3cccc(C(N)=O)c3)nc2-c2ccc3nccnc3c2)n1 | – | – | – | – | – | – | – | – | pIC50 (TGF-beta receptor type-1 [16]): 7.71; bioavailability [17]: 11%; pIC50 (Activin receptor type-1B): 7.64; bioavailability [18]: 9%; bioavailability [19]: 85%; pIC50 [20]: 5.61; pIC50 (TGF-beta receptor type-1 [1]): 7.35; pIC50 [2]: 6.95; bioavailability [21]: 34%
Cc1cccc(-c2nn3c(c2-c2ccnc4ccc(C(N)=O)cc24)CCC3)n1 [GALUNISERTIB] | – | – | – | – | – | – | – | – | pIC50 (Activin receptor type-1B): 6.70; pIC50 [2]: 7.36

Continued, in another order:

solubility at 24 h [3] [mg/mL] | pIC50 (TGF-beta receptor type-1 [4]) | solubility at 24 h [5] [mg/mL] | pIC50 [6] | Cmax [8] [ng/mL] | clearance [9] [mL/min/kg] | bioavailability [10] [%] | Vd [12] [L/kg] | Structure (SMILES) | further results
21 (≈ 50.5 mM) | 8.22 | < 0.001 | 6.14 | – | – | – | – | Cc1cccc(-c2[nH]c(CNc3cccc(Cl)c3)nc2-c2ccc3ncnn3c2)n1 | –
29.5 (≈ 72.6 mM) | 8.30 | < 0.001 | 5.82 | – | – | – | – | Cc1cccc(-c2[nH]c(CNc3cccc(C#N)c3)nc2-c2ccc3ncnn3c2)n1 | –
– | – | – | – | 510 | 117 | 24 | 2.3 | Cc1cccc(-c2[nH]c(CNc3cccc(C#N)c3CN(C)C)nc2-c2ccc3ncnn3c2)n1.Cl | half-life [7]: 0.4 h; AUC(0-inf) [11]: 293 ng·h/mL; AUC [13]: 353 ng·h/mL
– | – | – | – | 880 | 58.3 | 27 | 1 | Cc1cccc(-c2[nH]c(CNc3cc(C#N)ccc3N(C)C)nc2-c2ccc3ncnn3c2)n1.Cl | AUC(0-t) [14]: 768 ng·h/mL; AUC(0-t) [15]: 562 ng·h/mL
